Tests used:
Human AMPK α2β2γ1 = molecular target: T1, Human AMPK α2β2γ1 (Homo sapiens, UniProt O43741+P54646); assay: Test Example 2: evaluation of activators of AMP-activated protein kinase (mobility-shift assay, FL-Peptide 7); format: biochemical; details: human AMPK α2β2γ1 phosphorylated with CaMKK2; for EC150 (compound concentration showing 150% relative to the control (100%)): 25° C., 2 hours, 1% DMSO; for Emax: control = 100%, read-out: Emax (maximum rate of increase in activity within the measurement range)
T1 construct: The full length cDNAs of human AMPK β2 (NM_005399.3) and human AMPK α2 (NM_006252.3) were inserted; the full length cDNA of human AMPK γ1 (NM_002733.3) had been inserted into pET28b(+); 6xHis (N); made in house; host or cells: Escherichia coli BL21 CodonPlus (DE3)-RIL
T1 sequence (P54646 whole entry): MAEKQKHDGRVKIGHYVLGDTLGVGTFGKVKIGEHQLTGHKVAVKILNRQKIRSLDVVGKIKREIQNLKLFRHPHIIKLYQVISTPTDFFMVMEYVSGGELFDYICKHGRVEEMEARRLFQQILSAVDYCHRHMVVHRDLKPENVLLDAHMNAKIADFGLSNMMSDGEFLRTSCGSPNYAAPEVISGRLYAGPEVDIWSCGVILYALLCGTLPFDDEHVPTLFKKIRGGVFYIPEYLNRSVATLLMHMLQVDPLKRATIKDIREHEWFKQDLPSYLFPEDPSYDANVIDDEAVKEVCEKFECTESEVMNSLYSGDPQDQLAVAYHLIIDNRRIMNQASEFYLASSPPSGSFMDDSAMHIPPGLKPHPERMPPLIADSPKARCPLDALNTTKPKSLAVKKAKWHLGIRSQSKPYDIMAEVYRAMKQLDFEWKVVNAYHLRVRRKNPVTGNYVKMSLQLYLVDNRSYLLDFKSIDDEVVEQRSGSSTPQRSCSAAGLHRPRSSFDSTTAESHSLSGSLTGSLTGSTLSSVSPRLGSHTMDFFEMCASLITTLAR
T1 sequence (O43741 whole entry): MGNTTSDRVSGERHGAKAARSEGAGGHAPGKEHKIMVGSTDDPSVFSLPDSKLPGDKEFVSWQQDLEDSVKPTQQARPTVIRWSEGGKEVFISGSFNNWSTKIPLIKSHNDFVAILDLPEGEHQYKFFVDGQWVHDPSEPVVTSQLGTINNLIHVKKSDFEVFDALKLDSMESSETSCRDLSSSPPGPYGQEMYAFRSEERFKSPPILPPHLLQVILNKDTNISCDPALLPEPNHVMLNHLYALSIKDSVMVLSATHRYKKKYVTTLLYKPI
T1 sequence (P54619 whole entry partner): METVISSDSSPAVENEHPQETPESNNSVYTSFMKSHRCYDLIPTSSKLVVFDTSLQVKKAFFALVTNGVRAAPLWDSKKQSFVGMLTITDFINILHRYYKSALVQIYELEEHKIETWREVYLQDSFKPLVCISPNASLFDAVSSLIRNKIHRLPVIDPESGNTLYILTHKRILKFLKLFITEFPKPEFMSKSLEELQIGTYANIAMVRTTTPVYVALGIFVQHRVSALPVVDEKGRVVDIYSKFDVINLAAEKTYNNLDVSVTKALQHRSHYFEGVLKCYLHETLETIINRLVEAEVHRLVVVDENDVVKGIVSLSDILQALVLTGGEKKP
Procedure: The full length cDNAs of human AMPK β2 (NM_005399.3) and human AMPK α2 (NM_006252.3) were inserted into the MCS1 and MCS2 of the pETDuet-1 vector to prepare a human AMPK β2 and human AMPK α2 (6× His tag at the 5′ terminus) expressing plasmid. The plasmid was contransfected with an expression plasmid, in which the full length cDNA of human AMPK γ1 (NM_002733.3) had been inserted into pET28b(+), into BL21 CodonPlus (DE3)-RIL to obtain an expression strain. The expression strain was cultured in TB medium, followed by induction with 0.5 mM IPTG, and cultured at 25° C. for 3 hours and then harvested. After ultrasonication, supernatant was collected and applied to Histrap FF column (GE) and RESOUECE Q column (GE) to prepare 12.5 mg of purified sample containing three types of subunit from 1.8 L of broth.
An expression vector, in which the full length cDNA of human CAMKK β (NM_172226.1) had been inserted into pGEX-6P-3, was transfected into BL21 Star (DE3). The expression strain was cultured in TB medium, followed by induction with 0.5 mM IPTG, and cultured at 25° C. for 3 hours and then harvested. After ultrasonication, supernatant was collected and applied to GSTrap FF column (GE) to prepare 14 mg of GST-fused CAMKK […] from 720 ml of broth.
Thus, phosphorylation treatment was carried out as pretreatment.
Human AMPK α2β2γ1 in an amount to give a conversion rate of approximately 10% by reaction for 2 hours, and CaMKK2 in an amount capable of sufficiently imparting activity to AMPK for one hour were mixed in a buffer solution consisting of a 50 mM HEPES-NaOH buffer solution (pH 7.0), 100 mM NaCl, 5 mM magnesium chloride, 0.1% bovine serum albumin, 0.2 mM sodium orthovanadate(V), 1 mM ethylene glycol-bis(2-aminoethyl ether)-N,N,N′,N′-tetraacetic acid (EGTA), 5 mM disodium β-glycerophosphate, 1 mM dithiothreitol and 0.2 mM ATP, and the obtained liquid was left to stand at 25° C. for 1 to 1.5 hours to sufficiently phosphorylate AMPK.
After that, to the enzyme liquid, which had been subjected to phosphorylation treatment, a compound dissolved in DMSO was added so as to have a 1% DMSO concentration. The obtained liquid was left to stand for 10 minutes.
To the liquid, a substrate solution consisting of a 50 mM HEPES-NaOH buffer solution (pH 7.0), 100 mM NaCl, 10 mM magnesium chloride, 0.1% bovine serum albumin, 0.2 mM sodium orthovanadate(V), 1 mM ethylene glycol-bis(2-aminoethyl ether)-N,N,N′,N′-tetraacetic acid (EGTA), 5 mM disodium β-glycerophosphate, 2 mM dithiothreitol, 0.4 mM ATP and 3 μM FL-Peptide 7 (manufactured by Caliper Life Sciences, Inc.) was added in equal amount (10 μl in total). The obtained liquid was allowed to react at 25° C. for 2 hours, and 10 μl of 20 mM EDTA was then added thereto to stop the reaction.
To detect phosphorylated fluorescent substrates, the reaction liquid was applied to a measuring device, LabChip EZ Reader II manufactured by Caliper Life Science, Inc., for detecting fluorescence by using differences in mobility due to differences in charge. The setting conditions for the device were pressure, −1.5 PSI; upstream voltage, −2250 V; downstream voltage, −400 V; post sample buffer sip time, 40 seconds; final delay, 120 seconds; and peak order, Product First.
A conversion rate was calculated from the peak heights of the resulting substrate and product. The conversion rate when not containing a compound was used as a control, and a concentration dependent curve was made by plotting the rate of increase in activity to the control at each concentration of a compound. The compound concentration showing 150% relative to the control (100%) was used as the EC 150 value, and the maximum rate of increase in activity within the measurement range was used as Emax.

## Cc1ccc(Oc2nc3nc(-c4ccc(N5CCOCC5)cc4)c(Cl)cc3[nH]2)cc1C(=O)O [A−1, reference compound]
Human AMPK α2β2γ1
  EC150 (compound concentration showing 150% relative to the control (100%)): 130 nM
  Emax: 394%

## Cc1ccc(Oc2[nH]c3cc(Cl)c(-c4ccc(N5CCOCC5)cc4)cc3c2C#N)cc1C(=O)O [Compound I-1-6]
Human AMPK α2β2γ1
  EC150 (compound concentration showing 150% relative to the control (100%)): 76 nM
  Emax: 618%

## N#Cc1c(O[C@@H]2CO[C@H]3[C@@H]2OC[C@H]3O)[nH]c2cc(Cl)c(-c3ccc(C4=CCC(C(=O)O)CC4)cc3)cc12 (stereo partly shown) [Compound I-1-8]
Human AMPK α2β2γ1
  EC150 (compound concentration showing 150% relative to the control (100%)): 39 nM
  Emax: 580%

## N#Cc1c(O[C@@H]2CO[C@H]3[C@@H]2OC[C@H]3O)[nH]c2cc(Cl)c(-c3ccc(C4=CCN(C(=O)CO)CC4)cc3)cc12 [Compound I-1-9]
Human AMPK α2β2γ1
  EC150 (compound concentration showing 150% relative to the control (100%)): 20 nM
  Emax: 559%

## CC(=O)NC/C=C/c1ccc(-c2cc3c(C#N)c(O[C@@H]4CO[C@H]5[C@@H]4OC[C@H]5O)[nH]c3cc2Cl)cc1 [Compound I-2-9]
Human AMPK α2β2γ1
  EC150 (compound concentration showing 150% relative to the control (100%)): 34 nM
  Emax: 503%

## N#Cc1cc2[nH]c(O[C@@H]3CO[C@H]4[C@@H]3OC[C@H]4O)c(C#N)c2cc1-c1ccc(N2CCOCC2)cc1 [Compound I-2-17]
Human AMPK α2β2γ1
  EC150 (compound concentration showing 150% relative to the control (100%)): 98 nM
  Emax: 587%

## CC(=O)NC(C)(C)c1ccc(Oc2cc3nc(-c4c(F)cc(N5CCOCC5)cc4F)ccc3[nH]2)cc1 [Compound I-3-9]
Human AMPK α2β2γ1
  EC150 (compound concentration showing 150% relative to the control (100%)): 39 nM
  Emax: 446%

## O[C@@H]1CO[C@H]2[C@@H]1OC[C@H]2Oc1cc2nc(-c3ccc(N4CCOCC4)cc3)c(Cl)cc2[nH]1 [Compound I-3-15]
Human AMPK α2β2γ1
  EC150 (compound concentration showing 150% relative to the control (100%)): 1.9 nM
  Emax: 559%

## O[C@@H]1CO[C@H]2[C@@H]1OC[C@H]2Oc1cc2nc(-c3ccc(-c4ccccc4)cc3)c(Cl)cc2[nH]1 [Compound I-3-18]
Human AMPK α2β2γ1
  EC150 (compound concentration showing 150% relative to the control (100%)): 4.1 nM
  Emax: 489%

## O=C(O)C1CC=C(c2ccc(-c3nc4cc(O[C@@H]5CO[C@H]6[C@@H]5OC[C@H]6O)[nH]c4cc3Cl)cc2)CC1 (stereo partly shown) [Compound I-3-21]
Human AMPK α2β2γ1
  EC150 (compound concentration showing 150% relative to the control (100%)): 0.21 nM
  Emax: 787%

## CC(C)(C(=O)O)[C@H]1CC[C@H](Oc2cc3nc(-c4ccc(N5CCOCC5)cc4)c(Cl)cc3[nH]2)CC1 [Compound I-3-22]
Human AMPK α2β2γ1
  EC150 (compound concentration showing 150% relative to the control (100%)): 120 nM
  Emax: 264%

## O[C@@H]1CO[C@H]2[C@@H]1OC[C@H]2Oc1cc2nc(-c3c(F)cc(N4CCOCC4)cc3F)c(F)cc2[nH]1 [Compound I-3-24]
Human AMPK α2β2γ1
  EC150 (compound concentration showing 150% relative to the control (100%)): 8.8 nM
  Emax: 729%

## CC(C)(CO)C(=O)N1CCC(Oc2cc3nc(-c4ccc(N5CCOCC5)cc4)c(Cl)cc3[nH]2)CC1 [Compound I-3-28]
Human AMPK α2β2γ1
  EC150 (compound concentration showing 150% relative to the control (100%)): 54 nM
  Emax: 510%

## O[C@@H]1CO[C@H]2[C@@H]1OC[C@H]2Oc1cc2nc(-c3c(F)cc(C4=CCOCC4)cc3F)ccc2[nH]1 [Compound I-3-32]
Human AMPK α2β2γ1
  EC150 (compound concentration showing 150% relative to the control (100%)): 2.6 nM
  Emax: 661%

## Clc1cc2[nH]c(O[C@@H]3CO[C@@H]4CCO[C@@H]43)cc2nc1-c1ccc(N2CCOCC2)cc1 [Compound I-3-37]
Phototoxicity test
  phototoxicity test: negative

## CC(C)(CO)C(=O)N1CCC(Oc2cc3nc(-c4ccc(C5=CCC(C(=O)O)CC5)cc4)c(Cl)cc3[nH]2)CC1 (stereo not shown) [Compound I-3-38]
Human AMPK α2β2γ1
  Emax: 560%

## N#Cc1c(O[C@@H]2CO[C@H]3[C@@H]2OC[C@H]3O)[nH]c2ccc(-c3c(F)cc(C4=CCOCC4)cc3F)nc12 [Compound I-3-45]
Human AMPK α2β2γ1
  EC150 (compound concentration showing 150% relative to the control (100%)): 26 nM
  Emax: 694%

## CC(=O)NC1CC=C(c2ccc(-c3nc4cc(O[C@@H]5CO[C@H]6[C@@H]5OC[C@H]6O)[nH]c4cc3Cl)cc2)CC1 (stereo partly shown) [Compound I-3-46]
Human AMPK α2β2γ1
  EC150 (compound concentration showing 150% relative to the control (100%)): 0.48 nM
  Emax: 750%

## CS(=O)(=O)NC1CC=C(c2ccc(-c3nc4cc(O[C@@H]5CO[C@H]6[C@@H]5OC[C@H]6O)[nH]c4cc3Cl)cc2)CC1 (stereo partly shown) [Compound I-3-47]
Human AMPK α2β2γ1
  EC150 (compound concentration showing 150% relative to the control (100%)): 0.76 nM
  Emax: 727%

## N#Cc1c(O[C@@H]2CO[C@H]3[C@@H]2OC[C@H]3O)[nH]c2ccc(-c3c(F)cc(N4CC[C@@H](O)C4)cc3F)nc12 [Compound I-3-49]
Human AMPK α2β2γ1
  EC150 (compound concentration showing 150% relative to the control (100%)): 18 nM
  Emax: 848%

## Cc1ccc(Oc2cc3nc(-c4ccc(N5CCOCC5)cc4)c(Cl)cc3[nH]2)cc1C(=O)O [Compound I-3-50]
Human AMPK α2β2γ1
  EC150 (compound concentration showing 150% relative to the control (100%)): 63 nM
  Emax: 435%

— patent US9890119B2, “Indole and azaindole derivative having AMPK-activating activity” (SHIONOGI & CO., LTD., priority 2013, dated 2018)
